Results from US7919519B2, “S1P receptor modulating compounds and use thereof” (Epix Pharmaceuticals Inc., priority 2005, dated 2011).

What follows are molecules tested against T1, hS1P1 (Homo sapiens, UniProt P21453) (assay: hS1P1 EC50 (S1P receptor Ca2+ flux protocol, CHO K1 Gqi5 cells)).
T1 construct: expressed in transfected cells
T1 sequence (P21453 whole entry): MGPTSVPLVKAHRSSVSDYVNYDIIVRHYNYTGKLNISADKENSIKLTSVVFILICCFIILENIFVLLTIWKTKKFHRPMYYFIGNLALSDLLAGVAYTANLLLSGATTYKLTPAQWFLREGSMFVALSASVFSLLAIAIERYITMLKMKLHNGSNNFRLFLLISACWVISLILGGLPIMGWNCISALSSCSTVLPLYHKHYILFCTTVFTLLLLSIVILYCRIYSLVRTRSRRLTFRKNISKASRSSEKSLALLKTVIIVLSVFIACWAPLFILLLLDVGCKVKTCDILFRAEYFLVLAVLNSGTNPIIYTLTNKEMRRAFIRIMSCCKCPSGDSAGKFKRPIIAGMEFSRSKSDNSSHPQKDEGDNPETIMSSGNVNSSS
Type: cell-based
Description: S1P receptor activity may also be measured by an S1P receptor (e.g., hS1P1, hS1P3, rS1P1, rS1P3 and parental cell) Ca^2+ Flux protocol as described below:
1. Material • a. FLIPR buffer: 1×HBSS; 10 mM HEPES • b. Cell growth media: • i. human and rat S1P1 and S1P3: F12-Ham's media; 10% FBS (qualified); 1× Pen/Strep/Glu; 300 ug/mL Hygromycin; 400 ug/mL Geneticin • ii. Parental cell: human and rat S1P1 and S1P3: F12-Ham's media; 10% FBS (qualified); 1× Pen/Strep/Glu; 300 ug/mL Hygromycin; • c. Cell seeding media; F12-Ham's media; 10% FBS (Charcoal/dextran stripped); 1× Pen/Strep/Glu; • d. Cell dissociation buffer: Versene from Invitrogen • e. Agonist (S1P) dissolving buffer: 0.4% (w/v) fatty-acid free BSA (Sigma #A8806) in FLIPR buffer • f. FLIPR dye: BD PBX Calcium assay kit; Cat#641077 is composed of Calcium indicator (Cat#850000) and 100×PBX signal enhancer (cat#850001). The 100×PBX signal enhancer is diluted into FLIPR buffer 1:100 and the calcium indicator is then added at 1:1000 ratio. • g. Cell plates (96-well): Greiner Cat#655090 • h. Compound plates (96-well): Costar #3365 • i. S1P stock solution preparation: S1P is purchased from CalBioChem (Catalog #970471; 1 mg vial; custom prep using methanol, & nitrogen gas drying inside glass vial; Storage @ −20° C.). Dissolve 1 vial of S1P into 26.4 ml of agonist dissolving buffer in a 50 ml centrifuge tube; Remove label from bottle of S1P, open and drop entire bottle into tube. Sonicate at 37° for ½ hour. Clear solution of 100 μM will result. This stock solution is aliquoted and stored at −80 C
2. Cell line maintenance • a. V5 tags were added at the N-terminus of hS1P1, hS1P3, rS1P1 and rS1P3. All four genes were transfected into CHO K1 cells which stably express Gqi5. • b. hS1P1 and hS1P3 were established as stable clones and rS1P1 and rS1P3 were sorted by anti V5 tag and established as stable pools after sorting. • c. Parental cell line CHO/K1 Gqi5 is used as the control. • d. All the cells are maintained in cell growth media and splitted twice a week using Versene. • e. All the cell lines are used under passage 30.
3. Assay protocol • a. Cell seeding: Cells are lifted from the flask by Versene and seeded in cell plates at 50K/well in cell seeding media. Cells are grown overnight at 37 degree. • b. Cell loading: Cell seeding media is discarded. Cells are loaded with 50 ul of FLIPR dye at RT for 90 min. Signal is stable for up to 5 h after dye loading. • c. Agonist (S1P) preparation: Frozen stock of S1P is thawed out and sonicated at 37 c for 30 minutes every time before use. The stock is then diluted into FLIPR buffer at proper concentration. • d. Compound preparation: Compounds are dissolved in DMSO. A 3×, 10 point dilution of the compounds are carried out in DMSO. Then the compounds are diluted into assay buffer 133× so that the DMSO concentration is 0.75%. • e. Activity measurement: The fluorescence signal change of the cells upon compound addition is monitored in FLIPRtetra. 25 ul of compound is transferred into the cell plates (50 ul of FLIPR dye; DMSO concentration: 0.25%). Signal is recorded for 90 sec after compound addition. Then 50 ul of 500 nM S1P is added in the cell plate, and signal is recorded for 90 seconds upon addition.
4. Data analysis • a. Peak value is calculated for each compound/S1P addition • b. The peak value of S1P at 200 nM is used as high control (100%), and the peak value of buffer only is used as low control (0%). • c. Data is normalized against high and low controls using the following equation: POC—S=100*(RAW−LO)/(HI−LO) • d. Peak value is plotted against the concentration of compound. • e. Curve is fitted using the 4 parameter fit: Y=(A+(B/(1+((x/C)^D)))) • where: • Y is POC_S (or POC) • X is compound concentration • A is the minimum (EC50min or IC50min) • B is the maximum (EC50max or IC50max) • C is the inflection point (EC50IP or IC50IP) • D is the hill slope (EC50 slope or IC50 slope).
With `O=C(O)C1CCN(Cc2ccc(-c3cc4cc(C5CCCCC5)ccc4o3)cc2)CC1` [Compound 7, 1-(4-(5-cyclohexylbenzofuran-2-yl)benzyl)piperidine-4-carboxylic acid] the EC50 was greater than 25 µM. With `CCCCc1ccc2oc(-c3ccc(CN4CCC(C(=O)O)CC4)cc3)cc2c1` [Compound 8, 1-((4-(5-Butylbenzofuran-2-yl)phenyl)methyl)piperidine-4-carboxylic acid] the EC50 was greater than 25 µM. `O=C(O)C1CCN(Cc2ccc(-c3cc4cc(Cc5ccccc5)ccc4o3)cc2)CC1` [Compound 9, 1-((4-(5-Benzylbenzofuran-2-yl)phenyl)methyl)piperidine-4-carboxylic acid] gave an EC50 of no less than 25 µM. `O=C(O)C1CN(Cc2ccc(-c3cc4cc(CCc5ccccc5)ccc4o3)cc2)C1` [Compound 11, 1-((4-(5-phenethylbenzofuran-2-yl)phenyl)methyl)azetidine-3-carboxylic acid] gave an EC50 of no less than 25 µM. In the case of `CC(C)Cc1ccc2oc(-c3ccc(CN4CCC(C(=O)O)CC4)cc3)cc2c1` [Compound 13, 1-(4-(5-isobutylbenzofuran-2-yl)benzyl)piperidine-4-carboxylic acid], the EC50 is reported as greater than 25 µM. For `CCCCOc1ccc2cc(-c3ccc(CN4CC(C(=O)O)C4)cc3)oc2c1` [Compound 21, 1-((4-(6-Butoxybenzofuran-2-yl)phenyl)methyl)azetidine-3-carboxylic acid], the EC50 was 0.2 µM. `CCCCOc1ccc2oc(-c3ncc(CN4CC(C(=O)O)C4)s3)cc2c1` [Compound 22, 1-((2-(5-butoxybenzofuran-2-yl)thiazol-5-yl)methyl)azetidine-3-carboxylic acid] gave an EC50 of 1.1 µM. In the case of `CCCCOc1ccc2oc(-c3ccc(CN4CC(C(=O)O)C4)cc3F)cc2c1` [Compound 23, 1-((4-(5-Butoxybenzofuran-2-yl)3-fluorophenyl)methyl)azetidine-3-carboxylic acid], the EC50 is reported as 0.52 µM. Work on `O=C(O)C1CN(Cc2ccc(-c3cc4cc(-c5cccs5)ccc4o3)cc2)C1` [Compound 28, 1-((4-(5-(thiophen-2-yl)benzofuran-2-yl)phenyl)methyl)azetidine-3-carboxylic acid] yielded an EC50 of no less than 25 µM. Work on `CC(C)(CC(=O)O)NCc1ccc(-c2cc3cc(Cc4ccccc4)ccc3o2)c(F)c1` [Compound 46, 3-((4-(5-Benzylbenzofuran-2-yl)-3-fluorophenyl)methylamino)-3-methylbutanoic acid] yielded an EC50 greater than 25 µM.
